In patent publication US20250281649A1, “PROBE DIRECTED TO ENZYME ALDH1A3 AND USE THEREOF IN THE DIAGNOSIS OF GLIOBLASTOMA” (Universita' Degli Studi Del Piemonte Orientale "A. Avogadro", priority 2021, published 2025):
Read-outs that look alike come from different tables or passages of the source. Values belong to the molecule of their own block, whether it stands above or below them.

How the values were obtained:
ALDH1A1 [1] = target: T1, ALDH1A1 (Homo sapiens, UniProt P00352); assay: IC50 evaluation, NADH formation at 340 nm (Tecan SUNRISE); format: biochemical
T1 construct: His-tag; made in house; host or cells: bacterial cells
T1 sequence (P00352 1-501): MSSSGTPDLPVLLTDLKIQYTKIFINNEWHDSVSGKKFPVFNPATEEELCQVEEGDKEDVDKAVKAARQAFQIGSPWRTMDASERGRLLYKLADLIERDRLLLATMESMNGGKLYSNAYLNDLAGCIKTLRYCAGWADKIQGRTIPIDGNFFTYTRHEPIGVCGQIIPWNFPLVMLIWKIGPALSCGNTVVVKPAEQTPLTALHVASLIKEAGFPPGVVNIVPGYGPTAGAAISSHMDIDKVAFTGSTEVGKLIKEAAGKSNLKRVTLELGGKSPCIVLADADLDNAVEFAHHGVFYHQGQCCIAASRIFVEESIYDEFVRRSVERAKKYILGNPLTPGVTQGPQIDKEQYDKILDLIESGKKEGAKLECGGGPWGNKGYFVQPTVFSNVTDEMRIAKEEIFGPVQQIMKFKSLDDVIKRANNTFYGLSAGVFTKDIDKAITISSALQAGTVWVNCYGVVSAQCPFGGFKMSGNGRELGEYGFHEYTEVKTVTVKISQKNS
Description: (§1) A common protocol to express and purify all three members of the ALDHIA subfamily has been optimized. Briefly, induced cells, collected by centrifugation, were re-suspended in an appropriate volume of lysis buffer (50 mM Na2HPO4, 300 mM NaCl, 1 mM β-mercaptoethanol, 20 mM imidazole, pH 7.5) added of benzonase nuclease (250 U/μL) and Protease inhibitor cocktail from SIGMA. After ultracentrifugation, the clarified sample was purified by a His-tag affinity chromatography followed by size-exclusion chromatography, using an AKTA FPLC system, at 4° C. To evaluate the purity and homogeneity of the protein, after each purification step, eluted d fractions were analyzed by SDS-PAGE and the protein quantification was always determined by Bradford protein assay.
(§2) IC50 evaluation: on a Tecan—SUNRISE, probe 13 was tested in a serial dilution series from 200 μM to 3, 125 μM, against all the three isoenzymes. The recipe of reaction buffer was: 20 mM Tris HCl pH=8, 150 mM KCl, 1 mM B-mercaptoethanol, 500 μM NAD^+, 15% DMSO fixed, 20 mM acetaldehyde and 2.7 μM each isoenzyme. The analysis was conducted measuring the NADH formation, that has a specific absorbance wavelength (340 nm). The test was performed in triplicate with all the three isoenzymes.

ALDH1A2 [2] = target: T2, ALDH1A2 (Homo sapiens, UniProt O94788); assay: as above; format: biochemical; conditions: 20 mM acetaldehyde, 500 μM NAD+, 15% DMSO, 2.7 μM isoenzyme
T2 construct: His-tag; made in house; host or cells: bacterial cells
T2 sequence (O94788 1-518): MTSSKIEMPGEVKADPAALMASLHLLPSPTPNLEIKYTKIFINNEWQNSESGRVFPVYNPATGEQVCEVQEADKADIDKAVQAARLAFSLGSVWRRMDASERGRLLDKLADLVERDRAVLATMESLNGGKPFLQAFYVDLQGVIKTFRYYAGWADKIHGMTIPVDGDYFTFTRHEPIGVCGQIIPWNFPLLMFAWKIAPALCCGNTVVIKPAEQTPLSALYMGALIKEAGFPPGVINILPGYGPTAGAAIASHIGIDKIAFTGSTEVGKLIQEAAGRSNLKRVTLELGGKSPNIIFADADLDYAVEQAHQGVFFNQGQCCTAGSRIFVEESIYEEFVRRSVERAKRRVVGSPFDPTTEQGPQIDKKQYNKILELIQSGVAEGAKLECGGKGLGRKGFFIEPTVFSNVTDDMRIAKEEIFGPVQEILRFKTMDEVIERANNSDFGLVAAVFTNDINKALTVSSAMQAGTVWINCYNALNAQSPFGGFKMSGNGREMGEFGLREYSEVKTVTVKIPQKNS
Description: as §1, §2

ALDH1A3 [3] = target: T3, ALDH1A3 (Homo sapiens, UniProt P47895); assay: as above; format: biochemical
T3 construct: His-tag; made in house; host or cells: bacterial cells
T3 sequence (P47895 1-512): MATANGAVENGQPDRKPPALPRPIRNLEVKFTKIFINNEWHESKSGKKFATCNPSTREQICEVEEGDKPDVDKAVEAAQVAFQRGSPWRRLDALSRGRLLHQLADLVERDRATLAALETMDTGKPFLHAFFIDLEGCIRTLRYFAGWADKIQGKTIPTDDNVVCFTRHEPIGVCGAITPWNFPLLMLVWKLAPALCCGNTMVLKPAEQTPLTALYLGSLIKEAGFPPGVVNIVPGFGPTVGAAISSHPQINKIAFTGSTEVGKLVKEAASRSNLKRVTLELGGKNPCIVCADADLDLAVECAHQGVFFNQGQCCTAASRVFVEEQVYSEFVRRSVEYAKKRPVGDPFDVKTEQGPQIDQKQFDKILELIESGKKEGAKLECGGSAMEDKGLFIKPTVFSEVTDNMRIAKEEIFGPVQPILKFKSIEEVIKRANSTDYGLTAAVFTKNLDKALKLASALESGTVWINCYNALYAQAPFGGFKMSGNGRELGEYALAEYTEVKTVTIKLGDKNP
Description: as §1, §2

ALDH1A3 [4] = target: T3, ALDH1A3; assay: KD evaluation by probe fluorescence (Tecan SPARK); format: binding
Description: as §1
(§3) KD evaluation: on a Tecan—SPARK, probe 14 and 13 were tested at a fixed concentration of 10 μM. All the isoenzymes were tested in wide range of concentrations (from 100 μM to 1 μM). The analysis was settled with a BW of 20, monitoring the Em wavelength in range comprised between 520 and 535 nm for probe 14 and 520 and 580 nm for probe 13. The Ex was fixed at 420 nm for probe 14 and 440 nm for probe 13. The test was performed in quadruplicate with all the three isoenzymes. The recipe of the buffer reaction was the same as described before.

ALDH1A3 [5] = target: T3, ALDH1A3; assay: Fluorescence of probes in buffer and in complex with the isoenzymes (Tecan SPARK); format: binding; conditions: in complex with the three isoenzymes, in particular ALDH1A3
Description: All five compounds were dissolved in DMSO (100%) to obtain two different initial stocks, one at 10 mM and a second one at 1 mM. […] The assay can be executed at a maximum DMSO percentage of 15%. The maximum probe concentration tested was 500 uM—15% DMSO. All the compounds were tested using a Tecan—SPARK, to analyze their absorbance, excitation and emission wavelength. Based on the literature, the absorbance of the curcumin by itself is comprised between 420 and 425 nm. At first, we measured the absorbance, and from those values, we performed a 3D analysis to highlights the correct Ex and Em wavelengths. To avoid any possible background in the fluorescence signal we performed a screening of every possible buffer used in our assays.

ALDH1A1 [6] = target: T1, ALDH1A1; assay: KD evaluation by probe fluorescence (Tecan SPARK); format: binding; conditions: probe fixed at 10 μM, isoenzyme 100 μM to 1 μM
Description: as §1, §3

ALDH1A2 [7] = target: T2, ALDH1A2; assay: KD evaluation by probe fluorescence (Tecan SPARK); format: binding; conditions: probe fixed at 10 μM, isoenzyme 100 μM to 1 μM
Description: as §1, §3

[8] = substrate: COc1cc(/C=C/C(=O)/C=C(O)/C=C/c2ccc(OCc3cn(CCOc4ccc(C=O)cc4)nn3)c(OC)c2)ccc1O; assay: KM evaluation, compound as possible substrate, NADH formation; format: biochemical, human; conditions: 5% DMSO, pH 7.5
Description: as §1
KM evaluation: on a Tecan—SUNRISE, due to the inconsistency of result of the KD evaluation with probe 13 and to its chemistry nature (benzaldehyde), we performed an analysis to evaluate this compound possible substrate. The compound was tested in a serial dilution from 300 to 3.125 μM, at 5% DMSO. The analysis was conducted measuring the NADH formation, that has a specific absorbance wavelength (340 nm). The recipe of the buffer reaction was the same as described before. The assay was performed only for ALDH1A1 and ALDH1A2. The test was performed in triplicate with all the three isoenzymes.

[9] = ALDH1A1, 20 mM acetaldehyde, 500 μM NAD+, 15% DMSO, 2.7 μM isoenzyme, read-out: IC50
[10] = ALDH1A3, 20 mM acetaldehyde, 500 μM NAD+, 15% DMSO, 2.7 μM isoenzyme, read-out: IC50
[11] = ALDH1A3, probe fixed at 10 μM, isoenzyme 100 μM to 1 μM, read-out: KD

Molecule: CCOP(=O)(OCC)Oc1ccc(/C=C/C(=O)/C=C(O)/C=C/c2ccc(OCc3cn(CCOc4ccc(C=O)cc4)nn3)c(OC)c2)cc1OC [Compound 16]
IC50 (ALDH1A1 [1]): 150 µM
IC50 (ALDH1A2 [2]): N.I.
IC50 (ALDH1A3 [3]): 8.5 µM
Kd (ALDH1A3 [4]): 55.7 µM
increase of fluorescence in complex with the isoenzymes (ALDH1A3 [5]): no good result

Molecule: CCOC(=O)Cn1cc(COc2ccc(C=CC(=O)C=C(O)C=Cc3ccc(OP(=O)(OCC)OCC)c(OC)c3)cc2OC)nn1 [Compound 17]
IC50 (ALDH1A1 [1]; [9]): 70.1 µM
IC50 (ALDH1A2 [2]): N.I.
IC50 (ALDH1A3 [3]; [10]): 158 µM
Kd (ALDH1A1 [6]): 18.1 µM
Kd (ALDH1A3 [4]; [11]): 14.9 µM

IC50 (ALDH1A1 [1]; [9]): 28.5 µM
IC50 (ALDH1A2 [2]): N.I.
IC50 (ALDH1A3 [3]; [10]): 5.1 µM
Kd (ALDH1A1 [6]): 23.9 µM
Kd (ALDH1A2 [7]): 8.7 µM
Kd (ALDH1A3 [4]; [11]): 20.4 µM
increase of fluorescence in complex with the isoenzymes (ALDH1A3 [5]): no good result
Molecule: COc1cc(/C=C/C(O)=C/C(=O)/C=C/c2ccc(N(C)C)cc2)ccc1OCc1cn(CCOc2ccc(C=O)cc2)nn1 [Compound 15]

B1: ALDH1A1 (Homo sapiens) (protein)
chain: T1 sequence (P00352 1-501)
notes: His-tag; made in house; host or cells: bacterial cells
Km ([8]; other: ALDH1A1, 300 to 3.125 μM): 255.2 µM

B2: ALDH1A2 (Homo sapiens) (protein)
chain: T2 sequence (O94788 1-518)
notes: as for B1
Km ([8]; other: ALDH1A2, 300 to 3.125 μM): 220.0 µM
